Laboratory results published in patent US8765730B2 (Hoffmann-La Roche Inc, priority 2010, dated 2014).

Target: T1, human GPBAR1 receptor (Homo sapiens, UniProt Q8TDU6)
T1 construct: expressed in transfected cells
T1 sequence (Q8TDU6 1-330): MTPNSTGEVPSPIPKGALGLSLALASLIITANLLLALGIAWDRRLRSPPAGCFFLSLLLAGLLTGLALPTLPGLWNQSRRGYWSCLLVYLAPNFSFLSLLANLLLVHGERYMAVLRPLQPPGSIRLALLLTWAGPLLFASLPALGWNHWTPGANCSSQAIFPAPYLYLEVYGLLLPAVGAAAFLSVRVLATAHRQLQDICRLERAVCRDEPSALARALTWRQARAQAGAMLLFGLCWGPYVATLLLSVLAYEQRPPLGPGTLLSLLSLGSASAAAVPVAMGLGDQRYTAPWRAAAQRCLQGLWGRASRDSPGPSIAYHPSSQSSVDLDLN
Assay: functional cAMP assay in CHO-dhfr(minus) cells expressing human GPBAR1 receptors
Assay type: cell-based
Settings: functional cAMP assay, 30 min at 30° C., read-out: human EC50
Outline: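 Agonist cAMP read-out: stable GPBAR1 CHO-dhfr− clone, 30 min compound exposure at 30° C following 30 min IBMX (1 mM) preincubation in Krebs Ringer bicarbonate. Time-resolved energy-transfer detection gives EC50; parental CHO cells serve as counter-screen.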

EC50	Structure (SMILES)
31 nM	Cc1cc(/C(C[C@H](c2ccc(C(=O)NCCO)cc2)c2ccccc2C)=N/O)ccn1 [Example 273, N-(2-Hydroxy-ethyl)-4-[(R)-3-[(E)-hydroxyimino]-3-(2-methyl-pyridin-4-yl)-1-o-tolyl-propyl]-benzamide]

Same assay, conditions: human EC50, functional cAMP assay, 30 min at 30° C.

EC50	Structure (SMILES)
5050 nM	Cc1cc(C(CC(c2cccc(-c3ccc(C(=O)O)nc3)c2)c2ccccc2C)=NO)ccn1 (racemic) [Example 99, 5-{3-[3-[Hydroxyimino]-3-(2-methyl-pyridin-4-yl)-1-o-tolyl-propyl]-phenyl}-pyridine-2-carboxylic acid]
421 nM	Cc1ccccc1C(Cc1ccc(Br)cc1)/C(=N\O)c1ccncc1 (centres unmarked) [Example 44, (E)-3-(4-bromo-phenyl)-1-pyridin-4-yl-2-o-tolyl-propan-1-one oxime]
37 nM	Cc1ccccc1[C@H](C/C(=N\O)c1ccnc(Cl)c1)c1ccc(-c2ccc(C(=O)O)cc2)cc1 [Example 290, 4′-{(R)-3-(2-Chloro-pyridin-4-yl)-3-[(E)-hydroxyimino]-1-o-tolyl-propyl}-biphenyl-4-carboxylic acid]
6 nM	Cn1cc(/C(CC(c2ccc(Br)cc2)c2ccc(F)cc2F)=N/O)ccc1=O (centres unmarked) [Example 402, 5-{3-(4-Bromo-phenyl)-3-(2,4-difluoro-phenyl)-1-[(E)-hydroxyimino]-propyl}-1-methyl-1H-pyridin-2-one]
21 nM	Cc1cc(/C(C[C@H](c2ccc(C3CN(S(N)(=O)=O)C3)cc2)c2ccccc2C)=N/O)ccn1 [Example 485, (R,E)-3-(4-(3-(Hydroxyimino)-3-(2-methylpyridin-4-yl)-1-o-tolylpropyl)phenyl)azetidine-1-sulfonamide]
43 nM	Cc1cc(C(CC(c2ccc(-c3ccc(C(=O)O)cc3F)cc2)c2ccccc2C)=NO)ccn1 (racemic) [Example 82, 2-Fluoro-4′-[3-[hydroxyimino]-3-(2-methyl-pyridin-4-yl)-1-o-tolyl-propyl]-biphenyl-4-carboxylic acid]
11 nM	Cn1cc(/C(CC(c2ccc(Br)cc2)c2ccc(F)cc2Cl)=N/O)ccc1=O (centres unmarked) [Example 410, (E)-5-(3-(4-bromophenyl)-3-(2-chloro-4-fluorophenyl)-1-(hydroxyimino)propyl)-1-methylpyridin-2(1H)-one]
197 nM	Cc1cc(Cl)ccc1C(C/C(=N\O)c1ccc(=O)n(C)c1)c1ccc(OCCCC(=O)O)c(F)c1 (centres unmarked) [Example 327, 4-{4-[1-(4-Chloro-2-methyl-phenyl)-3-[(E)-hydroxyimino]-3-(1-methyl-6-oxo-1,6-dihydro-pyridin-3-yl)-propyl]-2-fluoro-phenoxy}-butyric acid]
18 nM	Cc1cc(/C(C[C@H](c2ccccc2)c2ccccc2C)=N/O)ccn1 [Example 368, (R,E)-1-(2-Methylpyridin-4-yl)-3-phenyl-3-o-tolylpropan-1-one oxime]
116 nM	Cc1ccccc1C(C/C(=N\O)c1ccc(=O)n(C)c1)c1ccc(C(=O)NC[C@@H](O)CO)cc1 (stereo partly drawn) [Example 307, N—((R)-2,3-Dihydroxypropyl)-4-((E)-3-(hydroxyimino)-3-(1-methyl-6-oxo-1,6-dihydro-pyridin-3-yl)-1-o-tolylpropyl)benzamide]
477 nM	Cc1ccccc1[C@@H](C/C(=N\O)c1cnc(=O)n(C)c1)c1ccc(S(C)(=O)=O)cc1 [Example 502, (S,E)-5-(1-(Hydroxyimino)-3-(4-(methylsulfonyl)phenyl)-3-o-tolylpropyl)-1-methyl-pyrimidin-2(1H)-one]
46 nM	Cc1cc(/C(CC(c2ccc(Br)cc2)c2ccccc2C(F)(F)F)=N/O)ccn1 (centres unmarked) [Example 132, (E)-3-(4-Bromo-phenyl)-1-(2-methyl-pyridin-4-yl)-3-(2-trifluoromethyl-phenyl)-propan-1-one oxime]
295 nM	COC(=O)c1ccc(-c2ccc(C(CC(=NO)c3ccnc(C)c3)c3ccccc3C)cc2)c(F)c1 (racemic) [Example 81, 2-Fluoro-4′-[3-[hydroxyimino]-3-(2-methyl-pyridin-4-yl)-1-o-tolyl-propyl]-biphenyl-4-carboxylic acid methyl ester]
323 nM	Cc1cc(C(CC(c2cccc(-c3cccc(C(=O)O)c3)c2)c2ccccc2C)=NO)ccn1 (racemic) [Example 102, 3′-[3-[Hydroxyimino]-3-(2-methyl-pyridin-4-yl)-1-o-tolyl-propyl]-biphenyl-3-carboxylic acid]
46 nM	Cc1ccccc1C(CC(=NO)c1cc(Cl)ncc1F)c1ccc(Br)cc1 (racemic) [Example 127, 3-(4-Bromo-phenyl)-1-(2-chloro-5-fluoro-pyridin-4-yl)-3-o-tolyl-propan-1-one oxime]
20 nM	Cc1cc(/C(CC(c2ccc(-c3ccc(C(=O)O)cc3)cc2)c2ccccc2C(F)(F)F)=N/O)ccn1 (centres unmarked) [Example 134, 4′-[3-[(E)-Hydroxyimino]-3-(2-methyl-pyridin-4-yl)-1-(2-trifluoromethyl-phenyl)-propyl]-biphenyl-4-carboxylic acid]

EC50	Structure (SMILES)
369 nM	C=CCC(C/C(=N\O)c1ccc(=O)n(C)c1)c1ccc(Br)cc1 (centres unmarked) [Example 176, 5-{3-(4-Bromo-phenyl)-1-[(E)-hydroxyimino]-hex-5-enyl}-1-methyl-1H-pyridin-2-one]
1360 nM	ON=C(CC(c1ccccc1)c1ccc(Br)cc1)c1ccnc(Cl)c1 (racemic) [Example 46, 3-(4-Bromo-phenyl)-1-(2-chloro-pyridin-4-yl)-3-phenyl-propan-1-one oxime]
18 nM	COCCN(C)c1ccc([C@@H](C/C(=N\O)c2ccnc(C)c2)c2ccccc2C)cc1 [Example 267, (E,R)-3-{4-[(2-Methoxy-ethyl)-methyl-amino]-phenyl}-1-(2-methyl-pyridin-4-yl)-3-o-tolyl-propan-1-one oxime]
39 nM	Cc1cc(C(C[C@@H](c2ccc(-c3ccc(C(=O)N[C@@H](C)C(=O)O)cc3)cc2)c2ccccc2C)=NO)ccn1 (racemic) [Example 95, (S)-2-({4′-[(S)-3-[Hydroxyimino]-3-(2-methyl-pyridin-4-yl)-1-o-tolyl-propyl]-biphenyl-4-carbonyl}-amino)-propionic acid]
995 nM	Cc1ccc(C(C/C(=N\O)c2ccc(=O)n(C)c2)c2ccc(-c3ccc(C(=O)O)cc3)cc2)c(F)c1 (centres unmarked) [Example 411, (E)-4′-(1-(2-fluoro-4-methylphenyl)-3-(hydroxyimino)-3-(1-methyl-6-oxo-1,6-dihydropyridin-3-yl)propyl)biphenyl-4-carboxylic acid]
30 nM	Cn1cc(/C(CC(c2ccc(-c3ccc(C(=O)O)cc3)cc2)c2ccc(F)cc2Cl)=N/O)ccc1=O (centres unmarked) [Example 412, (E)-4′-(1-(2-chloro-4-fluorophenyl)-3-(hydroxyimino)-3-(1-methyl-6-oxo-1,6-dihydropyridin-3-yl)propyl)biphenyl-4-carboxylic acid]
3640 nM	Cc1ccccc1C(C/C(=N\O)c1ccnc2cc(Cl)ccc12)c1ccc(Br)cc1 (centres unmarked) [Example 157, (E)-3-(4-Bromo-phenyl)-1-(7-chloro-quinolin-4-yl)-3-o-tolyl-propan-1-one oxime]
27 nM	Cc1cc(C(CC(c2ccc(-c3ccc(C(=O)O)c(Cl)c3)cc2)c2ccccc2C)=NO)ccn1 (racemic) [Example 84, 3-Chloro-4′-[3-[hydroxyimino]-3-(2-methyl-pyridin-4-yl)-1-o-tolyl-propyl]-biphenyl-4-carboxylic acid]
380 nM	Cc1ccc(C(CC(=NO)c2ccncc2)c2ccc(N(C)C)cc2)cc1C (racemic) [Example 17, 3-(4-Dimethylamino-phenyl)-3-(3,4-dimethyl-phenyl)-1-pyridin-4-yl-propan-1-one oxime]
278 nM	Cc1ccccc1[C@H](C/C(Cc1ccncc1)=N/O)c1ccc(Br)cc1 [Example 262, (Z,R)-4-(4-bromophenyl)-1-(pyridin-4-yl)-4-o-tolylbutan-2-one oxime]
60 nM	Cc1cc(Cl)ccc1C(C/C(=N\O)c1ccc(=O)n(C)c1)c1ccc(S(N)(=O)=O)cc1 (centres unmarked) [Example 338, (E)-4-(1-(4-chloro-2-methylphenyl)-3-(hydroxyimino)-3-(1-methyl-6-oxo-1,6-dihydropyridin-3-yl)propyl)benzenesulfonamide]
50 nM	Cc1cc(F)ccc1C(C/C(=N\O)c1ccc(=O)n(C)c1)c1ccc(-c2ccc(N)cc2)cc1 (centres unmarked) [Example 259, 5-{3-(4′-Amino-biphenyl-4-yl)-3-(4-fluoro-2-methyl-phenyl)-1-[(E)-hydroxyimino]-propyl}-1-methyl-1H-pyridin-2-one]
28 nM	Cc1cc(/C(C[C@H](c2ccc(N3CCCC3=O)cc2)c2ccccc2C)=N/O)ccn1 [Example 299, 1-{4-[(R)-3-[(E)-Hydroxyimino]-3-(2-methyl-pyridin-4-yl)-1-o-tolyl-propyl]-phenyl}-pyrrolidin-2-one]
375 nM	Cc1cc(C(=O)O)ccc1-c1ccc(C(C/C(=N\O)c2ccc(=O)n(C)c2)c2ccc(Cl)cc2Cl)cc1 (single isomer, unassigned) [Example 478, 4′-[(+)-1-(2,4-dichloro-phenyl)-3-[(E)-hydroxyimino]-3-(1-methyl-6-oxo-1,6-dihydro-pyridin-3-yl)-propyl]-2-methyl-biphenyl-4-carboxylic acid]
152 nM	Cn1cc(/C(C[C@@H](c2ccc(-c3ccc(C(=O)O)c(F)c3)cc2)c2ccc(Cl)cc2F)=N/O)ccc1=O (single isomer, unassigned) [Example 464, 4′-[(+)-1-(4-Chloro-2-fluoro-phenyl)-3-[(E)-hydroxyimino]-3-(1-methyl-6-oxo-1,6-dihydro-pyridin-3-yl)-propyl]-3-fluoro-biphenyl-4-carboxylic acid]
